Measurements from patent publication US11311598B2, “Peptides and analogs for use in the treatment of oral mucositis” (Soligenix, Inc., priority 2013, dated 2022).
Where no end group is shown, it is not given here.

Test system: male Golden Syrian hamsters
Assay: radiation-induced oral mucositis in hamsters (fractionated radiation)
Assay type: in vivo, hamster
Conditions: for duration of severe oral mucositis: fractionated radiation model
Protocol: These studies confirmed that optimal dosing of RIVPA (SEQ ID NO. 5) involves dosing every third day and that the 25 mg/kg dose level is effective. In this model, cannulated male Golden Syrian hamsters were treated with 7.5 Gy of radiation, directed at the everted left cheek pouch, on Days 0, 1, 2, 3, 6, 7, 8 and 9. Mucositis was evaluated every second day between Days 7 and 35, with peak mucositis severity generally occurring around Day 19. In the first study, RIVPA (SEQ ID NO. 5) (25 mg/kg IV) was administered either every third day starting on Day 0 and continuing until Day 33 (Q3d d0-33), or on days of radiation therapy (Days 0, 1, 2, 3, […], 7, 8, 9) or every third day starting on Day 6 and continuing to Day 24 (Q3d d6-24). On days where both RIVPA (SEQ ID NO. 5) and radiation was administered, RIVPA (SEQ ID NO. 5) was given 2 hours after radiation. […] A follow-up study was undertaken to evaluate dosing with 25 mg/kg IV RIVPA (SEQ ID NO. 5) Q3d d0-33, on days of radiation, or every third day during radiation treatment (i.e., Days 0, 3, 6 and 9).

Q: Which results are given for RIVPA-NH2 [RIVPA (SEQ ID NO. 5), RIVPA]?
A: treatment effectiveness on mucositis (first study, 25 mg/kg IV every third day Day 0 to Day 33 (Q3d d0-33)): most effective; treatment effectiveness on mucositis (first study, 25 mg/kg IV every third day Day 6 to Day 24 (Q3d d6-24)): not beneficial; treatment effectiveness on mucositis (first study, 25 mg/kg IV on days of radiation): most effective; treatment effectiveness on mucositis (follow-up study, 25 mg/kg IV every third day during radiation (Days 0, 3, 6 and 9)): optimal; duration of severe oral mucositis (FIG. 1): reduces; duration of severe oral mucositis (optimized dosing regimen, FIG. 2): reduces; severity and duration of mucositis (hamster, 7.5 Gy to left cheek pouch on Days 0, 1, 2, 3, 6, 7, 8 and 9, RIVPA IV): significantly reduced
